Assay [1] in a line: HepG2 cell cytotoxicity, dose response, cytotoxicity control, plate reader, cherry-pick, antagonist series (AID 743416). It counts as functional, cell-based.
Assay [2] can be described thus: MC4R antagonists, dose response, counter-screen for LGR2 antagonist project, cell-based, plate reader, cherry pick (AID 743444).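 Also: transfected HEK 293 cells stimulated with alpha-MSH peptide; potency of inhibitors of the alpha-MSH evoked signal.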 It counts as functional. On the technique in general: A counterscreen serves to expose hits that act by an unwanted route or on another target.
A short description of assay [3]: LGR2 antagonists, dose response, cell-based, HEK293, CRE-luciferase reporter, cherry pick, set 2 (AID 743343).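 Also: transfected cells were stimulated with diluted bursicon conditioned medium after compound addition.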 It counts as functional. Background: A reporter such as luciferase makes a cellular process visible.
Assay [4] concerns Streptococcus sp. 'group A'. The assay can be described thus: growth inhibition of control SK(-) GAS strain, dose response, counter-screen for streptokinase expression inhibitor project, luminescence, kanamycin, BacTiterGlo, confirmation (AID 1900). It counts as functional, organism-based.
The next assay has as its system Streptococcus. The experiment in a line: Group A Streptococcus viability loss, dose response, counter-screen for streptokinase expression inhibitor project, luminescence, BacTiterGlo (AID 1915).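 Also: potency for reduction of bacterial viability or growth.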 It counts as functional, organism-based.
Assay [5] is described as follows: A549 cell cytotoxicity, dose response, cytotoxicity control, plate reader, cherry-pick, antagonist series (AID 743412). It counts as functional, cell-based.
Assay [6] can be described thus: Luminescence-based counterscreen assay for KLF5 inhibitors: dose response cell-based high throughput screening assay to identify cytotoxic compounds using the IEC-6 intestinal epithelial cell line. [Related pubchem assays: 1700 (Primary screen.), 1834 (Confirmation screen.), 1858 (Summary AID.), 1905 (Counterscreen.)]. It counts as functional.
A short description of assay [7]: HEK293 cell cytotoxicity, dose response, cytotoxicity control, plate reader, cherry-picked samples (AID 743446). It counts as functional, cell-based.
In another assay the target is T1, Streptokinase A (Streptococcus pyogenes serotype M1, UniProt P10520).
T1 sequence (P10520 whole entry): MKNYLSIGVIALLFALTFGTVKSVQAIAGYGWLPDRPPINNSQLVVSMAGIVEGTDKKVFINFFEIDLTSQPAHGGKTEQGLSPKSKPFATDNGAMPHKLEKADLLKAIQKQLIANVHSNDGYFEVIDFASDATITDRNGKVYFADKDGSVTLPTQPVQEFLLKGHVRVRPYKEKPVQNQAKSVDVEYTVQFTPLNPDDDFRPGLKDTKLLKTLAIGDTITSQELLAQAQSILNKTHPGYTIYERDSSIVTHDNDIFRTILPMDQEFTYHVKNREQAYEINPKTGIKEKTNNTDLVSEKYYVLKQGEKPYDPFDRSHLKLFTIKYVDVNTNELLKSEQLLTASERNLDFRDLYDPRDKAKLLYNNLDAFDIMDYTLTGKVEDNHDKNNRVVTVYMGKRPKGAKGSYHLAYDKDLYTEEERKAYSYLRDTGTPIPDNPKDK
The experiment in a line: S. pyogenes streptokinase expression inhibitors, potency, dose response, plasminogen activation absorbance, OD405 (AID 1914).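 Also: secreted streptokinase activity via plasminogen activation per viability signal from cell pellet.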 It counts as functional, Streptococcus pyogenes M1 GAS.

Assay [8] is described as follows: ADAM10 protease inhibitors, dose response, selectivity assay for ADAM17 exosite inhibitor project, biochemical, FRET peptide substrate, recombinant human ADAM10 (AID 743259).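 Also: ADAM10 enzyme cleaving a FRET peptide substrate.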
In assay [9] the target is Disintegrin and metalloproteinase domain-containing protein 17 (Homo sapiens, UniProt P78536). The experiment in a line: exosite inhibitors of ADAM17, dose response, biochemical (AID 743260).
Disintegrin and metalloproteinase domain-containing protein 17, sequence (P78536 whole entry, the tested form may be a part): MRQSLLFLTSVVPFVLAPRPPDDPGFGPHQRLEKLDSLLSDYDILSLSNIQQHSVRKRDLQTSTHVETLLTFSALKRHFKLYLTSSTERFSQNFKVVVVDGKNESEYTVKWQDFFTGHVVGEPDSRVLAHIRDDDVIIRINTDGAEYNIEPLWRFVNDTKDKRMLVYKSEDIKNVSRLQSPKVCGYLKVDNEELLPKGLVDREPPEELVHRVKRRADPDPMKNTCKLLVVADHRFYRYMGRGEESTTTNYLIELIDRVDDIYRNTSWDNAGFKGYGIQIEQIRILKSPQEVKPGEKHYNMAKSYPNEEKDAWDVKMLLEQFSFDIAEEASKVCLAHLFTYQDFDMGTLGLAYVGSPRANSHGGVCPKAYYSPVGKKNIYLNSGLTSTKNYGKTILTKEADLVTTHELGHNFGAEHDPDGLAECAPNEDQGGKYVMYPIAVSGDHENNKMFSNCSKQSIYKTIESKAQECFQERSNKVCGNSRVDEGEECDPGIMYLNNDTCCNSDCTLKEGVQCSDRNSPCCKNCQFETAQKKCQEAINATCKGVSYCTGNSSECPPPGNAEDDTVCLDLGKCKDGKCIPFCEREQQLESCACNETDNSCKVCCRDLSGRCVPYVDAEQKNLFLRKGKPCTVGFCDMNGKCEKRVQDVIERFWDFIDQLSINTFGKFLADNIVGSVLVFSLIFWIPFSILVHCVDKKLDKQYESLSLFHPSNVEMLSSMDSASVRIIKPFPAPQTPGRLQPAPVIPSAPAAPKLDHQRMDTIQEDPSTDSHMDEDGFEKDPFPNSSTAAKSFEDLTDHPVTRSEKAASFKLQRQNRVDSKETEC
Assay [10] is described as follows: microbe, parasite or virus in culture. The conditions noted are these: Mycobacterium tuberculosis. It counts as functional.
A further assay deals with INS1. The experiment in a line: beta cell apoptosis inhibitors, cytokine rescue, dose response, luminescence, retest (AID 449756).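 Also: cell death triggered by IL-1 beta plus TNF-alpha plus IFN-gamma mixture; protective hits raise ATP signal compared with cytokine alone wells.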 It counts as functional, cell-based. Conditions: Rattus norvegicus.
Assay [11] in a line: inhibitors of intracellular T. cruzi replication, confirmation, NIH3T3 host cells, beta-gal luminescence (AID 2044).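 Also: intracellular parasites grown in NIH/3T3 mouse fibroblasts as host cells; luminescent beta-galactosidase reporter signal from transgenic T. cruzi replicating inside host cells; inhibitors lower the luminescence signal.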 It counts as functional, cell-based.
Assay [12] is described as follows: cytotoxicity toward NIH3T3 fibroblasts, dose response, counter-screen, cell-based, ATP luminescence, mouse fibroblasts (AID 2010).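 Also: cells exposed to compound for about 90 hours before reading.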 It counts as functional.
In assay [13] the target is Luciferin 4-monooxygenase (Photinus pyralis, UniProt P08659). The experiment in a line: firefly luciferase enzyme inhibitors, dose response, biochemical, luminescence (AID 1891).
Luciferin 4-monooxygenase, sequence (P08659 whole entry): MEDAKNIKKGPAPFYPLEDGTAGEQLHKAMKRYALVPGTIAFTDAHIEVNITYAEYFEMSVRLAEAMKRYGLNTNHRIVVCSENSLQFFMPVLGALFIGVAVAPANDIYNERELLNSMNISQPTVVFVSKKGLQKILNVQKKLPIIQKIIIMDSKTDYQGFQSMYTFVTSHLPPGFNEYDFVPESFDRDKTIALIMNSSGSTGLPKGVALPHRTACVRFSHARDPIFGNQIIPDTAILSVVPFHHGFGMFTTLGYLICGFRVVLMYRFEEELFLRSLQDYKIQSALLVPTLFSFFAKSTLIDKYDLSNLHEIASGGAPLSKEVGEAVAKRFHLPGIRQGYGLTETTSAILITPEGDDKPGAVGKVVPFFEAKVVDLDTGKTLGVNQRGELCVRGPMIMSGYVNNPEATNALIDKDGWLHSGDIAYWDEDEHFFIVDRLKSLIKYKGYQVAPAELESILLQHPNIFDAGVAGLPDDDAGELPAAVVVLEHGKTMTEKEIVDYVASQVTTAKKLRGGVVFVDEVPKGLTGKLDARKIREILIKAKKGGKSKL
A short description of assay [14]: Luminescence Cell-Based Dose Confirmation HTS to Identify Inhibitors of Platelet Dense Granule Release. [Related pubchem assays: 1663 (Primary HTS), 1678 (Summary of Project)]. It counts as functional.
The target of assay [15] is Protein-tyrosine kinase 2-beta (Homo sapiens, UniProt Q14289).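 Also: potency of inhibitors of PYK2 kinase phosphorylation of poly-GT substrate.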
Protein-tyrosine kinase 2-beta, sequence (Q14289 whole entry): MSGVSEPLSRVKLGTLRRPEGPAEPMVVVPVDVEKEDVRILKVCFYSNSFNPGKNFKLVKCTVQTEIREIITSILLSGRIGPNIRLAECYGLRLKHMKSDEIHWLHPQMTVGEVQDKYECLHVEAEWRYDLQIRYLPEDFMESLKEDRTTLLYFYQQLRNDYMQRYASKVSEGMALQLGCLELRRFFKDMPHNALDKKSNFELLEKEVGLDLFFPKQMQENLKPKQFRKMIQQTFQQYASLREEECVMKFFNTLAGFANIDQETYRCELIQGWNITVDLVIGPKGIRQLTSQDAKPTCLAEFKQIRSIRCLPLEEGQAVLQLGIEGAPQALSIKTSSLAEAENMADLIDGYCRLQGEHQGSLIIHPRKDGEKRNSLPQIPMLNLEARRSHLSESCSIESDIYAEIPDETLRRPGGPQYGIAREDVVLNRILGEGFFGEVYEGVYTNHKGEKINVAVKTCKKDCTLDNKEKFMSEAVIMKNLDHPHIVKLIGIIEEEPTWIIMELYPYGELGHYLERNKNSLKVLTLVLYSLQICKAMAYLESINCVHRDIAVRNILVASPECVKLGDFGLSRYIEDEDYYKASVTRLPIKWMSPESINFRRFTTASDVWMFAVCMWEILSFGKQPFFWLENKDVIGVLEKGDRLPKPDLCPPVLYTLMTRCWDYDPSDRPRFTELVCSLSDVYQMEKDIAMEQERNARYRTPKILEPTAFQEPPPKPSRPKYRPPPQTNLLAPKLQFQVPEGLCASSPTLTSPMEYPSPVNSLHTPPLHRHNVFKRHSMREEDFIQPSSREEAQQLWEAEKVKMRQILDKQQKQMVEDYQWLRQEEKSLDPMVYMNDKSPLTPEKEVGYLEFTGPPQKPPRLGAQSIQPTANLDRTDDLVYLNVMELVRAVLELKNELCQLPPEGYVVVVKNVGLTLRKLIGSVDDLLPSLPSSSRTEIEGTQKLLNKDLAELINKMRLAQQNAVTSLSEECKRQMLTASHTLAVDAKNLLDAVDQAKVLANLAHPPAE
A short description of assay [16]: Luminescence Cell-Based Dose Response HTS to Identify Activators of Luciferase Translation or Activity in H4 […] Cells. [Related pubchem assays: 1829 (Project Summary), 1814 (Primary HTS)]. It counts as functional.
A short description of assay [17]: Luminescence Cell-Based Dose Confirmation HTS to Identify Activators of 5'UTR Stem-Loop Driven Alpha-Synuclein mRNA Translation in H4 Neuroglioblastoma Cells. [Related pubchem assays: 1829 (Project Summary), 1814 (Primary HTS)]. It counts as functional.
Assay [18] is described as follows: Luminescence Cell-Based Dose Confirmation to Identify Activators of 5'UTR Stem-Loop Driven Alpha-Synuclein mRNA Translation in H4 Neuroglioblastoma Cells. [Related pubchem assays: 1829 (Project Summary), 1814 (Primary HTS)]. It counts as functional.
The nature of assay [19]: Luminescence Cell-Based Dose Response to Identify Activators of Luciferase Translation or Activity in H4-C Neuroglioblastoma Cells. [Related pubchem assays: 1829 (Project Summary), 1814 (Primary HTS)]. It counts as functional.
The subject of a further assay is H4. The experiment in a line: Luminescence Cell-Based Dose Response HTS to Identify Activators of 5'UTR Stem-Loop Driven Prion Protein mRNA Translation in H4 Neuroglioblastoma Cells. [Related pubchem assays: 1829 (Project Summary), 1814 (Primary HTS)]. Conditions: Homo sapiens. It counts as functional.
The nature of assay [20]: Luminescence Cell-Based Dose Response to Identify Activators of 5'UTR Stem-Loop Driven Prion Protein mRNA Translation in H4-C Neuroglioblastoma Cells. [Related pubchem assays: 1829 (Project Summary), 1814 (Primary HTS)]. It counts as functional.
A further assay has as its system HEK293. The experiment in a line: HEK293T cell cytotoxicity, dose response, cytotoxicity control, ATP luminescence, cherry-pick samples (AID 687005).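 Also: cells exposed to compound for 48 hours.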 The conditions noted are these: Homo sapiens. It counts as functional, cell-based.
Assay [21] can be described thus: HEK293 Cytotoxicity Assay Measured in Cell-Based System Using Plate Reader - 7071-01_Inhibitor_Dose_CherryPick_Activity_Set2. It counts as functional.
A short description of assay [22]: THP-1 cell cytotoxicity, dose response, cytotoxicity control for Vif-APOBEC3G degradation inhibitor project, THP-1 cells (AID 1117359). The conditions noted are these: Human immunodeficiency virus 1, THP-1. It counts as functional.
The nature of assay [23]: cytotoxicity in HPDE-C7 cells, cell-based, fluorescence, HTS (AID 430). Conditions: Homo sapiens. It counts as functional.
Assay [24] is described as follows: cytotoxicity in KRAS-transformed pancreatic duct cells, primary screen, cell-based, fluorescence, HTS (AID 431).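 Also: cell line used: HPDE-C7K.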 It counts as functional. Conditions: Homo sapiens.
The target of assay [25] is Sphingosine 1-phosphate receptor 2 (Homo sapiens, UniProt O95136). The experiment in a line: Dose Response Cell Based Assay for Antagonists of the S1P2 Receptor. [Related pubchem assays: 856, 736 ]. It counts as functional.
Sphingosine 1-phosphate receptor 2, sequence (O95136 whole entry): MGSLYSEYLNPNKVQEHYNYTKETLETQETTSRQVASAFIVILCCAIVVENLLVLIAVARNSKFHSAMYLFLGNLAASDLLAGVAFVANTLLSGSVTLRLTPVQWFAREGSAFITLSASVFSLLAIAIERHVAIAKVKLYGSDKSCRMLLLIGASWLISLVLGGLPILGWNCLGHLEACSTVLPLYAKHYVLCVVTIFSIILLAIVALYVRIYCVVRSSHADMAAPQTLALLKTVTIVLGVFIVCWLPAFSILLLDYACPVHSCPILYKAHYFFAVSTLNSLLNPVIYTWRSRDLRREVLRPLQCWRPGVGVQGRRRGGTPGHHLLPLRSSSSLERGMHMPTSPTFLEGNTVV
The nature of assay [26]: inhibitors of Vif binding to APOBEC3G peptide, primary screen, biochemical, TR-FRET, GST-Vif 1-94, biotin-A3G peptide, dose response retest (AID 1117319).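 Also: TR-FRET signal of purified GST-Vif binding a biotinylated A3G peptide; inhibitors lower the FRET signal by blocking Vif and A3G binding.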 It counts as functional. On the technique in general: TR-FRET usually uses a lanthanide donor and a delayed reading to cut background.

Molecules are shown by their SMILES. Calls of active or inactive are those of the source.

Take `CC(C)Oc1ccc(C(=O)Nc2nc3ccccc3[nH]2)cc1`: the half-maximal activity concentration (AC50) is 15.1 µM (active) in assay [1]; 2.16 µM (active) in assay [2]; 1.2 µM (active) in assay [3]; 18.8 µM (active) in [5]; 16.2 µM (active) in assay [7]. The half-maximal effective concentration (EC50) in assay [4] was 3.4 µM (active); in the assay on Streptococcus, 28.6 µM (active); on Streptokinase A, > 150 µM (not active). Besides, the IC50 in [6] was 17.8 µM (not active).

As for `Cc1nc2ccc(NC(=O)c3ccc(S(=O)(=O)N(C)c4ccccc4)cc3)cc2s1`, the IC50 in assay [8] and in assay [9] was > 69.5 µM (inactive) each time.

As for `COc1ccc(-c2cc3ccccc3oc2=O)cc1NC(=O)c1ccc([N+](=O)[O-])o1`, in assay [10], the CC50 was > 40 µM (active). For the same molecule, the AC50 with INS1 was 10.7 µM (active). Also, the half-maximal effective concentration (EC50) was < 0.1 µM (active) in assay [11], 9.47 µM (active) in assay [12] and 0.262 µM (active) in the assay “cells”.

Consider `CN1C(=O)/C(=C/c2cn(CC(=O)N3CCCCC3)c3ccccc23)c2ccccc21`, for which the half-maximal effective concentration (EC50) in [13] and in [14] was > 112 µM (not active) each time. In addition, the IC50 in assay [15] is 46.6 µM (not active).

With `c1ccc2c(c1)Cn1nc(Cc3nc4c(s3)CCCC4)nc1-2`, the EC50 was 7.06 µM (active) in [16]; < 0.1 µM (active) in assay [17]; > 3.8 µM (not active) in [18]; > 12 µM (not active) in assay [19]; 10.3 µM (active) in the assay with H4; > 12 µM (not active) in [20].

Turning to `Cc1ccc(N(CC(=O)NCCSCc2ccco2)S(=O)(=O)c2ccc(F)cc2)cc1`, the concentration at half-maximal activity (AC50) (in the assay on HEK293; in [21]) was 31.9 µM (active) each time. The CC50 in assay [22] was > 40 µM (active).

Regarding `Cc1ccc2nc(C(F)(F)F)c(C#N)c(N)c2c1`, the values for the 50% effective concentration (EC50) in [23] and in [24] were > 20 µM (not active) and 7.2 µM (active), respectively. For the same molecule, the half-maximal activity concentration (AC50) in assay [1] is 16 µM (active); in assay [3], 22.9 µM (active); in [5], 24.2 µM (active); in [7] it was > 52 µM (inactive).

For the molecule `COC(=O)c1sc2cc(C(F)(F)F)cnc2c1-c1ccccn1`, the concentration for half-maximal inhibition (IC50) in assay [25] is given as > 30 µM (not active).

As for `COC(=O)c1ccc(-n2nnnc2SCC(=O)Nc2cc(OC)ccc2OC)cc1`, the half-maximal inhibitory concentration (IC50) in [26] is > 100 µM (active).

In general, AC50 refers to the midpoint of the concentration-response curve, whichever way the signal moves. As a reminder, the EC50 is the concentration that produces a half-maximal response. The IC50 is the midpoint of a concentration-inhibition curve.

Values taken from ChEMBL document CHEMBL1201862, “PubChem BioAssay data set” (2004).
